In ChEMBL document CHEMBL1142363, “Rhodanine derivatives as novel inhibitors of PDE4” (Bioorg Med Chem Lett, 2008):
pIC50: −log10 of the molar value. The source made the active and inactive calls. The rule behind the calls is not given here.

Experiments:
[1] = biological target: 3',5'-cyclic-AMP phosphodiesterase 4B (Homo sapiens, UniProt Q07343); assay: Inhibition of PDE4B
[2] = biological target: cGMP-inhibited 3',5'-cyclic phosphodiesterase 3A (Homo sapiens, UniProt Q14432); assay: Inhibition of PDE3A
Chain of cGMP-inhibited 3',5'-cyclic phosphodiesterase 3A (Q14432 whole entry): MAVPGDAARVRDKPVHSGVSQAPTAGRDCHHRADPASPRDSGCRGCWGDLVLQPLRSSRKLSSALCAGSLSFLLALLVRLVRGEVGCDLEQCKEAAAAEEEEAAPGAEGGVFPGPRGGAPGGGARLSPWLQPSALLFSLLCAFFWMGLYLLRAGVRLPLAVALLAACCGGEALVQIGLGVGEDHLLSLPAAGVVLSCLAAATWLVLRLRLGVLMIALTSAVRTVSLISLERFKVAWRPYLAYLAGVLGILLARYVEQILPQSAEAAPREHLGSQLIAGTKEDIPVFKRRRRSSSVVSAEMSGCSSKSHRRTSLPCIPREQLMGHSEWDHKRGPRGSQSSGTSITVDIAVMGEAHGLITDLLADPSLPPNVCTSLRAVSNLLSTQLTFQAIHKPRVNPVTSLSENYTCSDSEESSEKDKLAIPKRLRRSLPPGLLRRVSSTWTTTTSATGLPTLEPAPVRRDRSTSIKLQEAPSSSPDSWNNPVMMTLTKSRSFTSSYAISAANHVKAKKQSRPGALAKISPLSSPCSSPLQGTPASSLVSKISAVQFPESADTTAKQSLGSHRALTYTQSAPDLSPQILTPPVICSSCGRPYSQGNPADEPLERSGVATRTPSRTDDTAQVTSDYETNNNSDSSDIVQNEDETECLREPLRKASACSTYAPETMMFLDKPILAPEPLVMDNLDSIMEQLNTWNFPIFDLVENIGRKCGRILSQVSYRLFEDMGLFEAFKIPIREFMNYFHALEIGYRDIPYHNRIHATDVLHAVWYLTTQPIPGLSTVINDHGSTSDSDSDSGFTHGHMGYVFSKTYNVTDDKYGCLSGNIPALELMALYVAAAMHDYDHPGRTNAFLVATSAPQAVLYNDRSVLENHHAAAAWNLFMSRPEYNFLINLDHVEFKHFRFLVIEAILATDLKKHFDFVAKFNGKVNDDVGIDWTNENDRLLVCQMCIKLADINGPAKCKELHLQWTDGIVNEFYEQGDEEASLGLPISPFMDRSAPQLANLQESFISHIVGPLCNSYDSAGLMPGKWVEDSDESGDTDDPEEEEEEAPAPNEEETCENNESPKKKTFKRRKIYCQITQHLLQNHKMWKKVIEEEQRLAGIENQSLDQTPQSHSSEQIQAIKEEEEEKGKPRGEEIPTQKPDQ

Chain of 3',5'-cyclic-AMP phosphodiesterase 4B (Q07343 whole entry): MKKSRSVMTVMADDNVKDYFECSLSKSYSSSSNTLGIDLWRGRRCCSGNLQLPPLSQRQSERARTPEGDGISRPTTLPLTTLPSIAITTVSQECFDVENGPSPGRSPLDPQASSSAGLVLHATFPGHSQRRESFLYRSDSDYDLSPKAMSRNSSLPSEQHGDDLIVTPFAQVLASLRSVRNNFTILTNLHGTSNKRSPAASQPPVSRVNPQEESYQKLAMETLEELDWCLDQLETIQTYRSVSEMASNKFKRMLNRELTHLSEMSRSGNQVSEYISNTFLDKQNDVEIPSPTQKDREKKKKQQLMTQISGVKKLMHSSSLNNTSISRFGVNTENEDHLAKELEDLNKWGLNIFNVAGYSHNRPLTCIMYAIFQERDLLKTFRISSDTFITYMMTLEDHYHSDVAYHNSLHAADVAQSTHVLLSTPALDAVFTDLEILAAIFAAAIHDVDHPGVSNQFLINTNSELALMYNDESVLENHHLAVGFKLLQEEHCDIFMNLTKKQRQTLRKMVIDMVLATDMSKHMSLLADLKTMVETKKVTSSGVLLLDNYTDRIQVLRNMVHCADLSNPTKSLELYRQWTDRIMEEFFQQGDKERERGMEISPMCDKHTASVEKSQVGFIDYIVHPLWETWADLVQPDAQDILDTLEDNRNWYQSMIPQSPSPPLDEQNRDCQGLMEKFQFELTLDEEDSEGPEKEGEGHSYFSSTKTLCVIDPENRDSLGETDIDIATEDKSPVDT

Activity [1] | pIC50 [1] | Activity [2] | pIC50 [2] | Compound
inactive | – | – | – | CCN1C(=O)/C(=C/c2ccc(OC)c(OC)c2)SC1=S
– | 4.19 | – | – | COc1cc(/C=C2\SC(=S)NC2=O)cc(OC)c1OC
inactive | – | – | – | COc1ccc(/C=C2\SC(=S)NC2=O)cc1OCc1ccccc1
– | – | inactive | – | COc1ccc(C2CNC(=O)C2)cc1OC1CCCC1 (stereo not drawn)
inactive | – | – | – | COc1ccc(/C=C2\SC(=S)N(CC(=O)O)C2=O)cc1OC
– | 5.51 | inactive | – | COc1ccc(/C=C2\SC(=S)N(CC(=O)O)C2=O)cc1OC1CCCC1
inactive | – | – | – | O=C1NC(=S)S/C1=C\c1ccc(O)c(O)c1
– | 4.52 | – | 4.55 | COc1cc(/C=C2\SC(=S)NC2=O)ccc1OC1CCCC1
– | 5.54 | inactive | – | COc1ccc(/C=C2\SC(=S)N(C)C2=O)cc1OC1CCCC1
– | – | inactive | – | COc1ccc(/C=C2\SC(=S)NC2=O)cc1OC (stereo in doubt; 10a) [listing 1 of 2 here]
– | 4.26 | – | – | COc1cccc(/C=C2\SC(=S)NC2=O)c1OC
inactive | – | – | – | COc1ccc(/C=C2\SC(=S)N(C)C2=O)cc1OC
– | 5.19 | – | 4.10 | CCOc1ccc(/C=C2\SC(=S)NC2=O)cc1OCC
– | 5.71 | inactive | – | COc1ccc(/C=C2\SC(=S)NC2=O)cc1OC1CCCCC1
– | 6.05 | – | 4.97 | COc1ccc(/C=C2\SC(=S)NC2=O)cc1OC1CCCC1
inactive | – | – | – | COc1cc(/C=C2\SC(=S)NC2=O)ccc1O
– | 6.51 | inactive | – | COc1ccc(/C=C2\SC(=N)NC2=O)cc1OC1CCCC1 [PSEUDOTHIOHYDANTOIN]
– | 4.85 | inactive | – | COc1ccc(/C=C2\SC(=O)NC2=O)cc1OC

Activity [1] | pIC50 [1] | Activity [2] | pIC50 [2] | Compound
– | 4.75 | – | 4.98 | COc1ccc(/C=C2\SC(=S)NC2=O)cc1OC (stereo in doubt; 2a)
– | 5.40 | inactive | – | COc1ccc(/C=C2\CCNC2=O)cc1OC1CCCC1
– | 5.28 | – | 4.40 | CCOc1cc(/C=C2\SC(=S)NC2=O)ccc1OC
– | 5.73 | – | 4.60 | CCOc1ccc(/C=C2\SC(=S)NC2=O)cc1OC1CCCC1
inactive | – | – | – | O=C1NC(=S)S/C1=C\c1ccc2c(c1)OCO2
– | 5.16 | – | 5.02 | CCOc1ccc(/C=C2\SC(=S)NC2=O)cc1OC
– | 5.38 | inactive | – | C=CCN1C(=O)/C(=C/c2ccc(OC)c(OC3CCCC3)c2)SC1=S
inactive | – | – | – | COc1ccc(/C=C2\SC(=S)NC2=O)cc1O
inactive | – | – | – | C=CCN1C(=O)/C(=C/c2ccc(OC)c(OC)c2)SC1=S
– | 5.96 | inactive | – | COc1ccc(/C=C2\SC(=O)NC2=O)cc1OC1CCCC1
– | 6.13 | inactive | – | CCN1C(=O)/C(=C/c2ccc(O)c(OC)c2)SC1=S
inactive | – | – | – | COc1cccc(/C=C2\SC(=S)NC2=O)c1
– | 4.55 | – | – | COc1ccc(/C=C2\SC(=S)NC2=O)cc1OC (stereo in doubt; 10a) [listing 2 of 2 here]
– | 4.95 | inactive | – | CCN1C(=O)/C(=C/c2ccc(OC)c(O)c2)SC1=S
– | 5.51 | inactive | – | C=CCOc1cc(/C=C2\SC(=S)NC2=O)ccc1OC
inactive | – | – | – | COc1ccc(/C=C2\SC(=S)NC2=O)cc1
inactive | – | – | – | COc1ccc(/C=C2\SC(=O)N(Cc3ccccc3)C2=O)cc1OC1CCCC1
